Activity calls are given as the source filed them. No cut-off for these calls is given here.
Tests used:
[1] = target: T1, Nuclear factor NF-kappa-B complex (Homo sapiens) (UniProt Q00653+P19838+Q04206); experiment: Inhibition of TNF-alpha induced NFkappaB activation in human HCT-116 cells assessed as inhibition of IkappaBalpha degradation at 1 to 10 uM pretreated for 24 hrs followed by TNFalpha stimulation for 10 mins by Western blot analysis; type: cell-based; conditions: dose 1-10 µM, time 1450.0 min
[2] = tested on: HT-29; experiment: Induction of cell cycle arrest in human HT-29 cells assessed as decrease in Cdc2 protein expression upto 10 uM incubated for 24 hrs by Western blot analysis; type: functional, cell-based
[3] = tested on: HT-29; experiment: Induction of apoptosis in human HT-29 cells assessed as late apoptotic cells at 0.5 uM incubated for 24 hrs by Annexin V-FITC/PI staining based flow cytometric analysis (reference value: 1.56 %); type: functional
[4] = tested on: Cell membrane; experiment: Disruption of mitochondrial membrane potential in human HT-29 cells at 0.25 to 10 uM measured after 24 hrs by JC-1 staining based flow cytometry analysis; type: subcellular; conditions: dose 0.25-10 µM
[5] = tested on: HT-29; experiment: Induction of autophagic flux in human HT-29 cells assessed as increase in LC3I to LC3II conversion preincubated with chloroquine for 1 hr followed by compound addition and measured after 24 hrs by Western blot analysis; type: functional, cell-based
[6] = tested on: HT-29; experiment: Induction of apoptosis in human HT-29 cells assessed as viable cells at 0.25 uM incubated for 24 hrs by Annexin V-FITC/PI staining based flow cytometric analysis (reference value: 93 %); type: functional; conditions: read-out: Activity
[7] = Toxicity in athymic nude BALB/c mouse xenografted with human HCT-116 cells assessed as pathological changes in lungs at 5 to 15 mg/kg, ip administered every other day and measured after 14 days by hematoxylin and eosin staining-based microscopic analysis; type: organism-based; conditions: in vivo, 336 h, dose 5-15 mg/kg, time 14 day
[8] = Cmax in Sprague-Dawley rat at 10 mg/kg, iv measured for 5 mins by HPLC-MS/MS analysis; type: ADME, organism-based; parameters: time 5 min, dose 10 mg/kg, route iv; conditions: in vivo
[9] = target: T1, Nuclear factor NF-kappa-B complex (Homo sapiens); experiment: Inhibition of TNF-alpha induced NFkappaB activation in human HT-29 cells assessed as downregulation of E-selectin gene expression pretreated for 24 hrs followed by TNFalpha stimulation and measured after 2 hrs by quantitative RT-PCR analysis; type: cell-based; conditions: dose 1-10 µM, time 26.0 hrs
[10] = tested on: Mus musculus; experiment: Protection against LPS-induced endotoxic shock in BALB/c mouse model assessed as survival rate at 5 mg/kg, ip pretreated for 4 hrs followed by LPS administration at 20 mg/kg and measured every 2 to 4 hrs for 44 hrs relative to control; type: functional; conditions: time 48 hrs
[11] = tested on: HT-29; experiment: Cytotoxicity against human HT-29 cells assessed as decrease in cell viability incubated for 48 hrs by SRB assay; type: functional, cell-based; conditions: HT-29, 48 h
[12] = tested on: HCT-116; experiment: Induction of autophagy in human HCT-116 cells assessed as increase in LC3 protein expression at 1 to 10 uM incubated for 24 hrs by Western blot analysis; type: functional, cell-based; conditions: dose 1-10 µM
[13] = tested on: HT-29; experiment: Induction of apoptosis in human HT-29 cells assessed as late apoptotic cells at 5 uM incubated for 24 hrs by Annexin V-FITC/PI staining based flow cytometric analysis (reference value: 6.91 %); type: functional
[14] = tested on: Mus musculus; experiment: (§1) Anti-inflammatory activity in AOM/DSS-induced BALB/c mouse model inflammatory bowel disease assessed as reduction in tumor number at 5 to 10 mg/kg, ip pretreated with AOM for 7 days further replaced with DSS for 7 days and repeated for 2 times followed by every 2 days compound treatment for […] starting from day 50 and measured once a week; type: functional, organism-based; conditions: dose 5-10 mg/kg, time 21.0 day
[15] = target: T1, Nuclear factor NF-kappa-B complex (Homo sapiens); experiment: Inhibition of NFkappaB activation in HEK293T cells transfected with HA-tagged TAB2 and kappaB luciferase/pTK-renilla reporters at 2 uM incubated for 6 hrs by Dual Luciferase Reporter Assay; type: cell-based; conditions: HEK-293T
[16] = tested on: HT-29; experiment: Induction of apoptosis in human HT-29 cells assessed as early apoptotic cells at 0.5 uM incubated for 24 hrs by Annexin V-FITC/PI staining based flow cytometric analysis (reference value: 5.29 %); type: functional
[17] = tested on: HCT-116; experiment: Induction of autophagic flux in human HCT-116 cells assessed as increase in LC3 protein expression preincubated with chloroquine for 1 hr followed by compound addition and measured after 24 hrs by Western blot analysis; type: functional, cell-based
[18] = tested on: HCT-116; experiment: Induction of cell cycle arrest in human HCT-116 cells assessed as accumulation of cells at G0/G1 phase at 5 uM by RNase/PI staining based flow cytometry analysis (reference value: 33.08 %); type: functional
[19] = tested on: Mus musculus; experiment: In vivo inhibition of NFkappaB activation in athymic BALB/c mouse xenografted with human HCT-116 cells assessed as reduction in E-selectin gene expression in tumor at 15 mg/kg, ip administered every other day and measured after 14 days by qRT-PCR analysis; type: functional, organism-based; conditions: time 14.0 day
[20] = Toxicity in athymic nude BALB/c mouse assessed as change in serum AKP level at 5 to 15 mg/kg, ip administered every other day and measured after 14 days; type: organism-based; conditions: in vivo, 336 h, dose 5-15 mg/kg, time 14 day
[21] = Toxicity in athymic nude BALB/c mouse assessed as change in serum ALT level at 5 to 15 mg/kg, ip administered every other day and measured after 14 days; type: organism-based; conditions: in vivo, 336 h, dose 5-15 mg/kg, time 14 day
[22] = tested on: HCT-116; experiment: Induction of cell cycle arrest in human HCT-116 cells assessed as accumulation of cells at S phase at 5 uM by RNase/PI staining based flow cytometry analysis (reference value: 43.77 %); type: functional
[23] = tested on: HCT-116; experiment: Induction of apoptosis in human HCT-116 cells assessed as necrotic cells at 0.25 uM incubated for 24 hrs by Annexin V-FITC/PI staining based flow cytometric analysis (reference value: 1.1 %); type: functional
[24] = tested on: Mus musculus; experiment: as §1, with “colon thickness” for “tumor number”; type: functional, organism-based; conditions: dose 5-10 mg/kg, time 21.0 day
[25] = tested on: SW-620; experiment: Cytotoxicity against human SW620 cells assessed as decrease in cell viability incubated for 48 hrs by SRB assay; type: functional, cell-based; conditions: SW-620, 48 h
[26] = tested on: HCT-116; experiment: Induction of apoptosis in human HCT-116 cells assessed as inhibition of caspase 3 protein expression measured for 24 hrs by Western blot analysis; type: functional, cell-based; conditions: dose 0-10 µM
[27] = tested on: HCT-116; experiment: Antitumor activity against human HCT-116 cells xenografted in athymic nude BALB/c mouse assessed as induction of apoptosis by measuring increase in cleaved caspase 3 expression in tumor at 15 mg/kg, ip administered every other day and measured after 14 days by immunohistochemistry analysis; type: functional, organism-based; conditions: time 14.0 day
[28] = Toxicity in athymic nude BALB/c mouse xenografted with human HT-29 cells assessed as pathological changes in lungs at 5 to 15 mg/kg, ip administered every other day and measured after 14 days by hematoxylin and eosin staining-based microscopic analysis; type: organism-based; conditions: in vivo, 336 h, dose 5-15 mg/kg, time 14 day
[29] = tested on: Mus musculus; experiment: In vivo inhibition of NFkappaB activation in athymic BALB/c mouse xenografted with human HCT-116 cells assessed as reduction in A20 gene expression in tumor at 15 mg/kg, ip administered every other day and measured after 14 days by qRT-PCR analysis; type: functional, organism-based; conditions: time 14.0 day
[30] = target: T1, Nuclear factor NF-kappa-B complex (Homo sapiens); experiment: Inhibition of TNF-alpha induced NFkappaB activation in human HCT-116 cells assessed as downregulation of E-selectin gene expression pretreated for 24 hrs followed by TNFalpha stimulation and measured after 2 hrs by quantitative RT-PCR analysis; type: cell-based; conditions: dose 1-10 µM, time 26.0 hrs
[31] = tested on: HCT-116; experiment: Induction of apoptosis in human HCT-116 cells assessed as viable cells at 10 uM incubated for 24 hrs by Annexin V-FITC/PI staining based flow cytometric analysis (reference value: 88.8%); type: functional; conditions: read-out: Activity

T1 sequence (P19838 whole entry, looked up): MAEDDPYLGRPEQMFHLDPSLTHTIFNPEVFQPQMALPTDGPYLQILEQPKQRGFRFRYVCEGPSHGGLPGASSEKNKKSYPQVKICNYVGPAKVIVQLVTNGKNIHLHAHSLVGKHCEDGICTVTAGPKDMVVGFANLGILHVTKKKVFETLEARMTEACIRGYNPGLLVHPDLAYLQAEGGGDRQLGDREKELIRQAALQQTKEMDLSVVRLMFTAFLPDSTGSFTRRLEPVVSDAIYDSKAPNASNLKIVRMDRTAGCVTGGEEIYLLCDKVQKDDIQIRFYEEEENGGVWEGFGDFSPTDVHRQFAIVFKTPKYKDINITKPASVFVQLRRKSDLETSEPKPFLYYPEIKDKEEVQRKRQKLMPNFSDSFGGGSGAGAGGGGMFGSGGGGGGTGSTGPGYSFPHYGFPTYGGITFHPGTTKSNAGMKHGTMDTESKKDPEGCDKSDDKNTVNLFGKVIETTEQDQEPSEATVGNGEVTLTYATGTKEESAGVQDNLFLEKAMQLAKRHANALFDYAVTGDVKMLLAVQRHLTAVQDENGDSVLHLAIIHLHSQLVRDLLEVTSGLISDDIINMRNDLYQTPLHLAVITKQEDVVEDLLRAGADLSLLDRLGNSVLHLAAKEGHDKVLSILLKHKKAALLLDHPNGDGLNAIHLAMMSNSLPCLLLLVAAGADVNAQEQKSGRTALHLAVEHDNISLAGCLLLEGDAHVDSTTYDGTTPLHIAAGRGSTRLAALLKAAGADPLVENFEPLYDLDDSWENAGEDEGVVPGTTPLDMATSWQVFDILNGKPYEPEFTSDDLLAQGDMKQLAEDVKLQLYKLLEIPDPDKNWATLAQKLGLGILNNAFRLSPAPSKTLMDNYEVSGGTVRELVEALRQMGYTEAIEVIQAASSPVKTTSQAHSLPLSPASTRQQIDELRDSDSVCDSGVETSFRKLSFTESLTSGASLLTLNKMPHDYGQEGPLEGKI
T1 sequence (Q00653 whole entry, looked up): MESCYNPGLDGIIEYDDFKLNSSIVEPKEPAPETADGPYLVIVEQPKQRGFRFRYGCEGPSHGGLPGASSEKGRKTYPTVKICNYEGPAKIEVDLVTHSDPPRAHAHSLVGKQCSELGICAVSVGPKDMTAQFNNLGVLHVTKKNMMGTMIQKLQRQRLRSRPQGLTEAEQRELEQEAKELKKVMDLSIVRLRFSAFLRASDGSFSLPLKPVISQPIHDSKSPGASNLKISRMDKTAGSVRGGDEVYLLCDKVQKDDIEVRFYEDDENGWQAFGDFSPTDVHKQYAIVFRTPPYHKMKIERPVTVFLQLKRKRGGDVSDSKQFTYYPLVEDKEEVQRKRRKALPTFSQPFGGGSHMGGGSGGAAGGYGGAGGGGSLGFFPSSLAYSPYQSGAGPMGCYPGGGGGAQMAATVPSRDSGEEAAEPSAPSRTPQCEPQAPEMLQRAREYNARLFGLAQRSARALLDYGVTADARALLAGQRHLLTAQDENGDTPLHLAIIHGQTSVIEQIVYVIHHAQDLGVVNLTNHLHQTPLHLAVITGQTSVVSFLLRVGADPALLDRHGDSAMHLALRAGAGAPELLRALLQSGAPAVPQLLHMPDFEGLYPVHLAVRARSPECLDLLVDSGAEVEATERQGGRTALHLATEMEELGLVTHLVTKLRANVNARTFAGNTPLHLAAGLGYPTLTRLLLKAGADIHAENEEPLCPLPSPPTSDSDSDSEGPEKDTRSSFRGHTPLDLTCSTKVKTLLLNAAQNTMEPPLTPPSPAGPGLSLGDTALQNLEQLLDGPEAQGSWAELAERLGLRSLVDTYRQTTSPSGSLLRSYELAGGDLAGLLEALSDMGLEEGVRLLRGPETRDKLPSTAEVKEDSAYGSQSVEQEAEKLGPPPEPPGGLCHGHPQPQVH
T1 sequence (Q04206 whole entry, looked up): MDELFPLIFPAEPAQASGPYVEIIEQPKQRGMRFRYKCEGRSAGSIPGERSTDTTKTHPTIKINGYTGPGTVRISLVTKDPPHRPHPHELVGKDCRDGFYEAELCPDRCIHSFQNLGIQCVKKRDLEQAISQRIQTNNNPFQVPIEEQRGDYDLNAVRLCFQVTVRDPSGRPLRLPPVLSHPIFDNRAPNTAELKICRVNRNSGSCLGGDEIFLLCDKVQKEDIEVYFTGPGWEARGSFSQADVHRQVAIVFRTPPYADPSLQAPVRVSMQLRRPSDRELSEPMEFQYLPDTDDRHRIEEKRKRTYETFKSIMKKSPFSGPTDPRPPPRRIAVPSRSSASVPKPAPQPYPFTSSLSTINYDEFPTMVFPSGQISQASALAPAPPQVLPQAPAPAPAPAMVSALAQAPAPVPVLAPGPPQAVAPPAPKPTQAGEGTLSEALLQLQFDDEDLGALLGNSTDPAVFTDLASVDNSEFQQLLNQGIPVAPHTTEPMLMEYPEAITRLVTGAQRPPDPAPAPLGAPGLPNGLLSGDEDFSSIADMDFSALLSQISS

For C[C@@H]1CC[C@H]2[C@H](C(=O)c3c(O)c([C@@]4(O)CC[C@@H](O)[C@H]5O[C@H]54)cn(O)c3=O)[C@H](C)C=C[C@@H]2C1, the inhibition [1] was “Active”, the Activity [2] was “Active” and the Activity [3] was 6.72%. For the same compound, the Activity [4] was “Active”, the Activity [5] was “Active” and the viability at 0.25 µM [6] was 85.9%. The Activity [7] was “Non-Toxic”, the Cmax [8] was 13200 ng/mL and the inhibition [9] was “Dose-Dependent Effect”. For the same compound, the survival at 5 mg/kg [10] was greater than 40%, the IC50 [11] was 570 nM and the Activity [12] was “Active”. For the same compound, the Activity [13] was 21.9%, the Activity [14] was “Active” and the inhibition [15] was “Active”. The Activity [16] was 37.6%, the Activity [17] was “Active” and the Activity [18] was 44.31%. The inhibition [19] was “Active”, the Activity [20] was “Non-Toxic” and the Activity [21] was “Non-Toxic”. For the same compound, the Activity [22] was 40.03%, the Activity [23] was 3.14% and the Activity [24] was “Active”. The IC50 [25] was 570 nM, the Activity [26] was “Dose-Dependent Effect” and the Activity [27] was “Active”. For the same compound, the Activity [28] was “Non-Toxic”, the inhibition [29] was “Active” and the inhibition [30] was “Dose-Dependent Effect”. The viability at 10 µM [31] was 11.1%.
